In patent US9469615B2, “Quinoxalines and AZA-quinoxalines as CRTH2 receptor modulators” (Merck Sharp & Dohme Corp., priority 2010, dated 2016) one finds Ki data, which are given here for 32 compounds.

In the first assay the target is T1, hCRTH2 (Homo sapiens, UniProt Q9Y5Y4).
T1 construct: expressed in transfected cells; host or cells: HEK (human embryonic kidney) cells expressing hCRTH2; membrane preparation
T1 sequence (Q9Y5Y4 1-395): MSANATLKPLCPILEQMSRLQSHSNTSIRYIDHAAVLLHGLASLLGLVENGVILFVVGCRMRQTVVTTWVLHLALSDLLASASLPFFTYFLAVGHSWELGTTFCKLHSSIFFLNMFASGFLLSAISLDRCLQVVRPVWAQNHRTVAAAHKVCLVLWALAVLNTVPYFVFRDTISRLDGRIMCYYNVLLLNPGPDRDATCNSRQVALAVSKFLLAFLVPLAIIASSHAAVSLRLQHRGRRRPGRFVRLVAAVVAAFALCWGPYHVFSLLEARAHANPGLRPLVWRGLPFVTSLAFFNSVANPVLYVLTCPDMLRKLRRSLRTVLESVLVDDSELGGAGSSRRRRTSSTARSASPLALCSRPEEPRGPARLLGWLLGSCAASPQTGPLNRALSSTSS
The assay is described as follows: Radioligand binding assay ([3H]PGD2 competition, HEK-hCRTH2 membranes). As to conditions: [3H]PGD2 binding, rated A-E (Table A). The gist of the method: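 Membranes (8-20 μg protein) from HEK-hCRTH2 cells were incubated 60 min at room temperature with 3.0 nM [3H]PGD2 in 50 mM Tris-HCl pH 7.4, 1 mM EDTA, 2 mM MnCl2, 1% DMSO. Non-specific binding defined with 10 μM PGD2. Bound radioactivity counted after filtration.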
Take `O=C(O)CCCCc1nc2cc(C(=O)NCc3ccc(C(F)(F)F)cc3)cnc2nc1-c1ccccc1` [compound 14]: the Ki (usually the equilibrium dissociation constant of an inhibitor or competing ligand from its target) was 2.1 to 20 nM. On the same count and under the same terms, the value for `O=C(O)CCCCc1nc2cc(C(=O)NCc3ccc(Cl)cc3)ccc2nc1-c1ccc(Cl)cc1` [compound 16] was 0.1 to 2 nM; that for `CC(CCc1nc2cc(C(=O)N3CCC(c4ccccc4)CC3)ccc2nc1-c1ccc(Cl)cc1)CC(=O)O` (stereo not drawn) [compound 17, 3-(4-chlorophenyl)-beta-methyl-7-[(4-phenyl-1-piperidinyl)carbonyl]-2-quinoxalinepentanoic acid] was 2.1 to 20 nM. `CC(CCCc1nc2cc(C(=O)N3CCC(c4ccccc4)CC3)ccc2nc1-c1ccc(C(F)(F)F)cc1)C(=O)O` (stereo not drawn) [compound 18, alpha-methyl-7-[(4-phenyl-1-piperidinyl)carbonyl]-3-[4-(trifluoromethyl)phenyl]-2-quinoxalinepentanoic acid] displayed a Ki of 2.1 to 20 nM.

Compound `O=C(O)Cc1cccc(CCc2nc3cc(C(=O)N4CCC(c5ccccc5)CC4)ccc3nc2-c2ccc(Cl)cc2)c1` [compound 19, 2-(3-(2-(3-(4-chlorophenyl)-7-(4-phenylpiperidine-1-carbonyl)quinoxalin-2-yl)ethyl)phenyl)acetic acid] returned a Ki of 2.1 to 20 nM.

In the case of `C[C@H](c1ccccc1)N(C)C(=O)c1ccc2nc(-c3ccc(F)cc3)c(CCCCC(=O)O)nc2c1` [compound 21, (R)-5-(3-(4-fluorophenyl)-7-(methyl(1-phenylethyl)carbamoyl)quinoxalin-2-yl)pentanoic acid], the Ki was 0.1 to 2 nM. The same measure, in the same setting: to `O=C(NCc1cccc(Cl)c1)c1ccc2nc(-c3ccccc3)c(CCCc3nnn[nH]3)nc2c1` [compound 22] belongs 20.1 to 200 nM; to `O=C(O)CCCc1nc2cc(C(=O)NCc3cccc(Cl)c3)ccc2nc1-c1ccccc1` [compound 23, 7-[[[(3-chlorophenyl)methyl]amino]carbonyl]-3-phenyl-2-quinoxalinebutanoic acid], 20.1 to 200 nM; to `O=C(O)CCCCc1nc2cc(C(=O)N3CC[C@@H](c4ccccc4)C3)c(F)cc2nc1-c1ccc(Cl)cc1` [compound 24, 3-(4-chlorophenyl)-6-fluoro-7-[(3(S)-phenyl-1-pyrrolidinyl)carbonyl]-2-quinoxalinepentanoic acid], 2.1 to 20 nM. Regarding `O=C(O)CCCCc1nc2cc(S(=O)(=O)N3CCC(c4ccccc4)CC3)ccc2nc1-c1ccc(Cl)cc1` [compound 25, 5-(3-(4-chlorophenyl)-7-(4-phenylpiperidin-1-ylsulfonyl)quinoxalin-2-yl)pentanoic acid], the Ki lay within 201 to 700 nM. Same read-out and setting: to `O=C(O)CCCCc1nc2cc(C(=O)N3CCC(c4ccccc4)C3)ccc2nc1-c1ccc(C(F)(F)F)cc1` (centres unmarked) [compound 26, 5-(7-(3-Phenylpyrrolidine-1-carbonyl)-3-(4-(trifluoromethyl)phenyl)-quinoxalin-2-yl)pentanoic acid] belongs 0.1 to 2 nM. Compound `O=C(O)CCOCc1nc2cc(C(=O)N3CCC(c4ccccc4)CC3)ccc2nc1-c1ccc(Cl)cc1` [compound 29, 3-((3-(4-chlorophenyl)-7-(4-phenylpiperidine-1-carbonyl)quinoxalin-2-yl)methoxy)propanoic acid] had a Ki of 2.1 to 20 nM. On the same count and under the same terms, the value for `O=C(O)C1CC(Cc2nc3cc(C(=O)N4CCC(c5ccccc5)CC4)ccc3nc2-c2ccc(Cl)cc2)C1` (centres unmarked) [compound 30, 3-((3-(4-chlorophenyl)-7-(4-phenylpiperidine-1-carbonyl)quinoxalin-2-yl)methyl)cyclobutanecarboxylic acid] was 2.1 to 20 nM. The same measure, in the same setting: to `O=C(O)CCCCc1nc2cc(C(=O)N3CC(c4nc5ccccc5[nH]4)C3)ccc2nc1-c1ccc(F)cc1` [compound 31, 5-(7-(3-(1H-benzo[d]imidazol-2-yl)azetidine-1-carbonyl)-3-(4-fluorophenyl)quinoxalin-2-yl)pentanoic acid] belongs 2.1 to 20 nM. Same read-out and setting: the value for `O=C(O)Cc1cccc(CCCc2nc3cc(C(=O)N4CCC(c5ccccc5)CC4)ccc3nc2-c2ccc(Cl)cc2)c1` [compound 32, 2-(3-(3-(3-(4-chlorophenyl)-7-(4-phenylpiperidine-1-carbonyl)quinoxalin-2-yl)propyl)phenyl)acetic acid] was 2.1 to 20 nM; that for `O=C(O)CCCC(O)c1nc2cc(C(=O)N[C@@H]3CCCc4ccccc43)ccc2nc1-c1ccc(Cl)cc1` (stereo partly drawn) [compound 33, 5-(3-(4-chlorophenyl)-7-(((R)-1,2,3,4-tetrahydronaphthalen-1-yl)carbamoyl)quinoxalin-2-yl)-5-hydroxypentanoic acid] was 20.1 to 200 nM; that for `O=C(O)CCCC(=O)c1nc2cc(C(=O)N[C@@H]3CCCc4ccccc43)ccc2nc1-c1ccc(Cl)cc1` [compound 34, (R)-5-(3-(4-chlorophenyl)-7-((1,2,3,4-tetrahydronaphthalen-1-yl)carbamoyl)quinoxalin-2-yl)-5-oxopentanoic acid] was 201 to 700 nM. As for `O=C(O)CCCC(F)c1nc2cc(C(=O)N[C@@H]3CCCc4ccccc43)ccc2nc1-c1ccc(Cl)cc1` (stereo partly drawn) [compound 35, 5-(3-(4-chlorophenyl)-7-(((R)-1,2,3,4-tetrahydronaphthalen-1-yl)carbamoyl)quinoxalin-2-yl)-5-fluoropentanoic acid], the Ki lay within 20.1 to 200 nM. `C[C@@H](NC(=O)c1ccc2nc(-c3ccccc3)c(CCCC(=O)O)nc2c1)c1ccc(F)cc1` [compound 36, (R)-4-(7-((1-(4-fluorophenyl)ethyl)carbamoyl)-3-phenylquinoxalin-2-yl)butanoic acid] had a Ki of 701 to 2300 nM.

`C[C@@H](NC(=O)c1ccc2nc(-c3ccccc3)c(CCCC(F)(F)C(=O)O)nc2c1)c1ccc(F)cc1` [compound 37, (R)-2,2-difluoro-5-(7-((1-(4-fluorophenyl)ethyl)carbamoyl)-3-phenylquinoxalin-2-yl)pentanoic acid] came in with a Ki of 20.1 to 200 nM. Same read-out and setting: to `C[C@@H]1CN(c2ccc(F)cc2)CCN1C(=O)c1ccc2nc(-c3ccccc3)c(CCCCC(=O)O)nc2c1` [compound 39, (R)-5-(7-(4-(4-fluorophenyl)-2-methylpiperazine-1-carbonyl)-3-phenylquinoxalin-2-yl)pentanoic acid] belongs 2.1 to 20 nM; to `O=C(O)CCCCc1nc2cc(C(=O)N[C@@H]3CCCc4cc(F)ccc43)ccc2nc1-c1ccccc1` [compound 40, (R)-5-(7-((6-fluoro-1,2,3,4-tetrahydronaphthalen-1-yl)carbamoyl)-3-phenylquinoxalin-2-yl)pentanoic acid], 2.1 to 20 nM; to `C[C@@H]1CN(c2ccccc2)CCN1C(=O)c1ccc2nc(-c3ccccc3)c(CCCCC(=O)O)nc2c1` [compound 41, (R)-5-(7-(2-methyl-4-phenylpiperazine-1-carbonyl)-3-phenylquinoxalin-2-yl)pentanoic acid], 2.1 to 20 nM. Still for that read-out and setting: to `O=C(O)Cc1cc(F)cc(CCc2nc3cc(C(=O)N4CCC(c5ccccc5)CC4)ccc3nc2-c2ccc(Cl)cc2)c1` [compound 42, 2-(3-(2-(3-(4-chlorophenyl)-7-(4-phenylpiperidine-1-carbonyl)quinoxalin-2-yl)ethyl)-5-fluorophenyl)acetic acid] belongs 2.1 to 20 nM.

`C[C@@H]1CN(c2ccc(F)cc2)CCN1C(=O)c1ccc2nc(-c3ccccc3)c(NCCCC(=O)O)nc2c1` [compound 44, (R)-4-((7-(4-(4-fluorophenyl)-2-methylpiperazine-1-carbonyl)-3-phenylquinoxalin-2-yl)amino)butanoic acid] came in with a Ki of 2.1 to 20 nM.

In turn, `O=C(O)CCCCc1nc2cc(C(=O)NCc3ccc(Cl)cc3)ccc2nc1-c1ccc(F)cc1` [compound 100] showed a Ki of 0.1 to 2 nM. On the same count and under the same terms, the value for `O=C(O)CCCCc1nc2cc(C(=O)NCc3cccc(Cl)c3)ccc2nc1-c1ccc(F)cc1` [compound 101, 7-[[[(3-chlorophenyl)methyl]amino]carbonyl]-3-(4-fluorophenyl)-2-quinoxalinepentanoic acid] was 2.1 to 20 nM. On the same count and under the same terms, to `O=C(O)CCCCc1nc2cc(C(=O)N[C@@H](c3ccccc3)C(F)(F)F)ccc2nc1-c1ccc(F)cc1` [compound 102, 3-(4-fluorophenyl)-7-[[(2,2,2-trifluoro-1(S)-phenylethyl)amino]carbonyl]-2-quinoxalinepentanoic acid] belongs 2.1 to 20 nM. Same read-out and setting: the value for `O=C(O)CCCCc1nc2cc(C(=O)NC3Cc4ccccc4C3)ccc2nc1-c1ccc(F)cc1` [compound 103, 7-[[(2,3-dihydro-1H-inden-2-yl)amino]carbonyl]-3-(4-fluorophenyl)-2-quinoxalinepentanoic acid] was 0.1 to 2 nM; that for `N#Cc1ccc(CNC(=O)c2ccc3nc(-c4ccc(F)cc4)c(CCCCC(=O)O)nc3c2)cc1` [compound 104, 7-[[[(4-cyanophenyl)methyl]amino]carbonyl]-3-(4-fluorophenyl)-2-quinoxalinepentanoic acid] was 2.1 to 20 nM; that for `O=C(O)CCCCc1nc2cc(C(=O)N3CCC(c4ccccc4)CC3)ccc2nc1-c1ccc(F)cc1` [compound 105, 3-(4-fluorophenyl)-7-[(4-phenyl-1-piperidinyl)carbonyl]-2-quinoxalinepentanoic acid] was 2.1 to 20 nM. `O=C(O)CCCCc1nc2cc(C(=O)N3CCC(c4ccccc4)C3)ccc2nc1-c1ccc(F)cc1` (centres unmarked) [compound 106, 3-(4-fluorophenyl)-7-[(3-phenyl-1-pyrrolidinyl)carbonyl]-2-quinoxalinepentanoic acid]: the Ki fell in the range of 0.1 to 2 nM.

The same assay, now with this note: [3H]PGD2 binding, values in text.
Compound `C[C@@H](NC(=O)c1ccc2nc(-c3ccccc3)c(CCCC(=O)O)nc2c1)c1ccc(F)cc1` [compound 36, (R)-4-(7-((1-(4-fluorophenyl)ethyl)carbamoyl)-3-phenylquinoxalin-2-yl)butanoic acid] came in with an inhibitory constant (Ki) of 716 nM. On the same count and under the same terms, the value for `C[C@@H]1CN(c2ccc(F)cc2)CCN1C(=O)c1ccc2nc(-c3ccccc3)c(CCCCC(=O)O)nc2c1` [compound 39, (R)-5-(7-(4-(4-fluorophenyl)-2-methylpiperazine-1-carbonyl)-3-phenylquinoxalin-2-yl)pentanoic acid] was 8 nM.

On to `C[C@@H]1CN(c2ccccc2)CCN1C(=O)c1ccc2nc(-c3ccccc3)c(CCCCC(=O)O)nc2c1` [compound 41, (R)-5-(7-(2-methyl-4-phenylpiperazine-1-carbonyl)-3-phenylquinoxalin-2-yl)pentanoic acid], for which affinity was put at a Ki of 8.8 nM.
